Some test systems named below: NCI-H23 lung; LXFL 529 NSCLC; A549 NSCLC; TK-10 renal; NCI-H522 lung; MALME-3M melanoma; DLD-1 colon; SNB-75 CNS; SW-620 colon; SR leukemia.
Holding throughout (test): NCI anticancer screen, dose series, 48 h

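Dose response: 5 concentrations. Exposure: 48 h. Format: 96-well plates. Endpoint: linear interpolation; highest concentration if not reached. TGI is the concentration that stops growth completely.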

`COC/N=C(\NC#N)NCOC`: the TGI in the experiment with NCI-H23 lung, in the experiment on LXFL 529 NSCLC, in the experiment on A549 NSCLC, in the experiment on TK-10 renal, in the experiment on NCI-H522 lung and with MALME-3M melanoma was greater than 100 µM throughout. Besides, the TGI in the experiment with DLD-1 colon is greater than 100 µM; in the experiment with SNB-75 CNS it was greater than 100 µM; with SW-620 colon, greater than 59.7 µM; with SR leukemia it was 54.6 µM.

Regarding `CCOc1cccc2c1N[S@@](=O)S2`, the TGI with NCI-H23 lung, with LXFL 529 NSCLC, in the experiment with A549 NSCLC, with TK-10 renal, with NCI-H522 lung and in the experiment on MALME-3M melanoma was greater than 100 µM each time. Further, the TGI in the experiment with DLD-1 colon, in the experiment on SNB-75 CNS, with SW-620 colon and in the experiment with SR leukemia was greater than 100 µM each time.

As for `COc1ccc(O)c(C(=O)CCC(=O)O)c1`, the TGI with NCI-H23 lung, in the experiment with LXFL 529 NSCLC, in the experiment on A549 NSCLC, in the experiment on TK-10 renal, with NCI-H522 lung and in the experiment with MALME-3M melanoma was greater than 100 µM in each case. Also, the TGI in the experiment on DLD-1 colon, with SNB-75 CNS, in the experiment with SW-620 colon and in the experiment on SR leukemia was greater than 100 µM in each case.

These data come from PubChem BioAssay (NCI).
